Assay results from PMC4484629, “Targeting of anti-citrullinated protein/peptide antibodies in rheumatoid arthritis using peptides mimicking endogenously citrullinated fibrinogen antigens” (Arthritis Research & Therapy, 2015).
“And” between values parts separate entries of the source, which are not always exact repeats. Equal values may be shown once. Where a SMILES comes first, the peptide text is derived from it. [ ]: non-standard residue; d: D form. Cit = NC(=O)NCCC[C@H](N)C(=O)O

What was measured:
[1] = tested on: sera from RA patients (EIRA cohort); assay: Peptide microarray (ImmunoCAP ISAC), immune reactivity of sera against the fibrinogen peptides; type: binding, human; settings: for positive immune reactivity among anti-CCP2-positive RA patients: 402 CCP2-positive RA sera; for positive immune reactivity among anti-CCP2-positive RA patients / positive immune reactivity among anti-CCP2-negative RA patients: cutoff 98th percentile of healthy controls; for positive immune reactivity among anti-CCP2-negative RA patients: 525 CCP2-negative RA sera; for diagnostic sensitivity among all 927 RA patients: share of sera positive, Arg control intensity subtracted, cutoff 98th percentile of 461 healthy controls (98 % specificity)
Method: Serum from 927 RA patients (newly diagnosed patients within 12 months of appearance of first symptoms; 402 CCP2 positive and 525 CCP2 negative) and 461 healthy controls from the Epidemiological Investigation of RA (EIRA) case-control cohort were collected. Control samples were randomly chosen from the Swedish population registry, matching for age, sex, and residential area. All serum and plasma samples were stored at −70 °C prior to analysis. All patients fulfilled the American College of Rheumatology-European League Against Rheumatism criteria for RA [20]. CCP2-positive RA individuals used for ACPA affinity purification were selected based on having high anti-CCP2 antibody levels (>300 AU/ml, Immunoscan CCPlus® assay, Euro-Diagnostica AB, Sweden). All patients gave written informed consent. This study was approved by the regional ethical committee at the Karolinska Institutet (96-174), and performed in accordance with the Declaration of Helsinki.
Peptide microarray was performed as previously described. Briefly, peptides (sequences in Table 1) were immobilized onto a chemically modified glass slide, sera from RA patients and healthy controls were applied into the reactions sites, and fluorescence intensity after incubation with anti-human IgG antibody was acquired in a laser scanner (LuxScan 10K, CapitalBio, Beijing, China). Final results for each citrullinated peptide were calculated by subtracting the intensity values of the corresponding arginine-containing control from the citrullinated peptide for all RA patients and controls. Cutoff values were determined as the 98th percentile of the healthy control responses. Microarray data are available in the ArrayExpress database under accession number [EMBL:E-MTAB-3606].
(§1) Results are presented as mean ± standard error (SEM) of values (two to seven experiments per ACPA pool), and were compared using the Student’s t-test for unpaired comparisons using GraphPad Prism 6 software (La Jolla, CA, USA). Median values were also calculated in order to consider non-Gaussian distributions. As the mean and median values were generally coincident, the Mann-Whitney U test was not selected for statistical analysis. P <0.05 was assumed to denote a significant difference. Relative IC50 values (IC50 definition according to International Union of Pharmacology Committee on Receptor Nomenclature and Drug Classification – ‘the molar concentration of an antagonist that reduces the response to an agonist by 50 %’ [25]) were also calculated using GraphPad Prism 6 software. Cutoffs for the ISAC system chip data were calculated as the 98th percentile reactivity among the 461 EIRA controls investigated in parallel to the 927 RA patients.

[2] = tested on: ACPA pool I (affinity purified human anti-CCP2 IgG); assay: ACPA competition assay: peptide pre-incubated with ACPA, then anti-CCP2 ELISA (CCPlus); type: binding; settings: for maximum ACPA blocking (inhibition of anti-CCP2 reactivity): ACPA pool I 1.2 μg/ml (8 nM IgG), peptide 0.016-320 nmol in 225 μl, 1 h room temperature before CCP2 ELISA, mean of 2-7 experiments; for IC50: ACPA pool I 1.2 μg/ml, 1 h room temperature pre-incubation, mean ± SEM, n given per value (n = 2-6), GraphPad Prism, read-out: IC50 of ACPA blocking (relative IC50)
Method: (§2) ACPA were affinity purified as recently described. Two different ACPA pools were prepared for the competition assays: ACPA pool I, containing autoantibodies purified from 11 plasma or serum samples (plasma n = 4, sera n = 7); and ACPA pool II, containing 39 plasma or serum samples (plasma n = 38, serum n = 1). Before pooling, each purified ACPA sample was individually tested by in house ELISA for immunoreactivity to fibrinogen Cit573 and citrullinated fibrinogen 36-52 [24]. Anti-CCP2 reactivity was determined using the Immunoscan CCPlus® assay. All pooled samples were CCP2 positive.
(§3) ACPA pools I and II were used at a concentration of 1.2 μg/ml (8 nM IgG). The autoantibodies were incubated with the fibrinogen and fibrinogen-derived peptides at room temperature for one hour. The mole quantities of peptides tested were: 0.016, 0.16, 1.6, 16, 22, 49, 60, 80, 120, 160, 216, and 320 nmol in an incubation volume of 225 μl. ACPA blocking by the fibrinogen peptides was subsequently assessed by measuring the remaining anti-CCP2 reactivity. Cit573 and Cit591 were equally combined and co-tested for ACPA blocking. Arginine peptides (573, 591, 72, and 74) were used as negative controls in all assays.
(§4) To further explore the blocking potential of Cit573, a retrieval assay was performed, that is, the ability of the peptide to compete with already CCP2-bound ACPA was tested. ACPA pool I was added to the CCP2 plate and incubated for one hour at room temperature, followed by the addition of the peptides (citrulline and unmodified peptides) at mole quantities ranging from 16 to 320 nmol. ACPA pools incubated with no peptide were defined as positive control, giving the maximum values of anti-CCP2 reactivity. Arbitrary units were calculated according to the standard curve given by the ELISA kit. Each experiment had one standard curve. Mean values were calculated and results are expressed as a function of percentage of inhibition of ACPA from the peptide amount (nmol).
as §1

[3] = tested on: ACPA pool II (affinity purified human anti-CCP2 IgG); assay: as above; type: binding; settings: for IC50: ACPA pool II 1.2 μg/ml, 1 h room temperature pre-incubation, mean ± SEM, n given per value (n = 2-4), GraphPad Prism, read-out: IC50 of ACPA blocking (relative IC50); for maximum ACPA blocking (inhibition of anti-CCP2 reactivity): ACPA pool II 1.2 μg/ml (8 nM IgG), peptide 0.016-320 nmol in 225 μl, 1 h room temperature before CCP2 ELISA, mean of 2-7 experiments
Method: as §2, §3, §4, §1

[4] = tested on: ACPA pool I bound to CCP2 plate; assay: Retrieval assay: peptide competes with already CCP2-bound ACPA; type: binding, human; settings: ACPA pool I bound to CCP2 plate 1 h room temperature, then peptide 16-320 nmol; data not shown
Method: as §4

Row | IC50 [2] [µM] | IC50 [3] [µM] | ACPA binding to the CCP2 ELISA plate reverted (retrieval) [4] [%] | Compound | positive immune reactivity among anti-CCP2-positive RA patients [1] | positive immune reactivity among anti-CCP2-negative RA patients [1] | diagnostic sensitivity among all 927 RA patients [1] [%] | maximum ACPA blocking (inhibition of anti-CCP2 reactivity) [2] [%] | maximum ACPA blocking (inhibition of anti-CCP2 reactivity) [3] | maximum ACPA blocking (inhibition of anti-CCP2 reactivity) ([2]; listed as cyclic form of the Cit573 peptide)
1 | 194 | 412 | – | C[C@@H](O)[C@H](NC(=O)[C@H](CO)NC(=O)[C@H](CC(=O)O)NC(=O)CNC(=O)[C@H](CCCNC(N)=O)NC(=O)[C@H](CC(N)=O)NC(=O)[C@H](Cc1ccc(O)cc1)NC(=O)[C@H](CO)NC(=O)[C@@H](NC(=O)[C@H](CO)NC(=O)[C@H](CO)NC(=O)[C@@H](NC(=O)[C@H](Cc1ccccc1)NC(=O)[C@H](CCC(N)=O)NC(=O)[C@H](CCCCN)NC(=O)[C@@H](N)CO)[C@@H](C)O)[C@@H](C)O)C(=O)N[C@@H](Cc1ccccc1)C(=O)N[C@@H](CCC(=O)O)C(=O)N[C@@H](CO)C(=O)N[C@@H](CCCCN)C(=O)N[C@@H](CO)C(=O)O [Cit591] (H-SKQFTSSTSYN[Cit]GDSTFESKS-OH) | 15% and 14.7% | 6% and 6.1% | 9.8 | 63 | – | –
2 | 51 | 186 | – | CC[C@H](C)[C@H](NC(=O)CN)C(=O)N[C@@H](C)C(=O)N[C@@H](CCC(=O)O)C(=O)N[C@@H](Cc1ccccc1)C(=O)N1CCC[C@H]1C(=O)N[C@@H](CO)C(=O)N[C@@H](CCCNC(N)=O)C(=O)NCC(=O)N[C@@H](CCCCN)C(=O)N[C@@H](CO)C(=O)N[C@@H](CO)C(=O)N[C@@H](CO)C(=O)N[C@@H](Cc1ccc(O)cc1)C(=O)N[C@@H](CO)C(=O)O [Cit573Lin1] (H-GIAEFPS[Cit]GKSSSYS-OH; N-terminus assumed) | – | – | – | 75 | 47% | –
3 | 123 | 105 | – | C[C@H](N)C(=O)N[C@@H](CCC(=O)O)C(=O)N[C@@H](Cc1ccccc1)C(=O)N1CCC[C@H]1C(=O)N[C@@H](CO)C(=O)N[C@@H](CCCNC(N)=O)C(=O)NCC(=O)N[C@@H](CCCCN)C(=O)N[C@@H](CO)C(=O)N[C@@H](CO)C(=O)N[C@@H](CO)C(=O)O [Cit573Lin2] (H-AEFPS[Cit]GKSSS-OH; N-terminus assumed) | – | – | – | 69 | 40% | –
4 | 59 | 548 | 80 | CC[C@H](C)[C@H](NC(=O)CNC(=O)[C@@H]1CCCN1C(=O)[C@H](Cc1c[nH]cn1)NC(=O)[C@@H](N)Cc1c[nH]cn1)C(=O)N[C@@H](C)C(=O)N[C@@H](CCC(=O)O)C(=O)N[C@@H](Cc1ccccc1)C(=O)N1CCC[C@H]1C(=O)N[C@@H](CO)C(=O)N[C@@H](CCCNC(N)=O)C(=O)NCC(=O)N[C@@H](CCCCN)C(=O)N[C@@H](CO)C(=O)N[C@@H](CO)C(=O)N[C@@H](CO)C(=O)N[C@@H](Cc1ccc(O)cc1)C(=O)N[C@@H](CO)C(=O)N[C@@H](CCCCN)C(=O)N[C@@H](CCC(N)=O)C(=O)N[C@@H](Cc1ccccc1)C(=O)O [Cit573] (H-HHPGIAEFPS[Cit]GKSSSYSKQF-OH) | 65% and 65.4% | 5% and 5.5% | 31.5 | 84 | Approximately 50% | –
5 | 28 | – | – | CC[C@H](C)[C@@H]1NC(=O)CNC(=O)[C@@H]2CCCN2C(=O)[C@H](Cc2c[nH]cn2)NC(=O)[C@H](Cc2c[nH]cn2)NC(=O)[C@H](CS)NC(=O)[C@H](Cc2ccccc2)NC(=O)[C@H](CCC(N)=O)NC(=O)[C@H](CCCCN)NC(=O)[C@H](CO)NC(=O)[C@H](Cc2ccc(O)cc2)NC(=O)[C@H](CO)NC(=O)[C@H](CO)NC(=O)[C@H](CO)NC(=O)[C@H](CCCCN)NC(=O)CNC(=O)[C@H](CCCNC(N)=O)NC(=O)[C@H](CO)NC(=O)[C@@H]2CCCN2C(=O)[C@H](Cc2ccccc2)NC(=O)[C@H](CCC(=O)O)NC(=O)[C@H](C)NC1=O [Cit573Cyc] (cyclo(CHHPGIAEFPS[Cit]GKSSSYSKQF)) | – | – | – | 92 | approximately 90% | approximately 90%
